Usually mass density stands for mass per unit of volume. Usually refractive index stands for the speed of light in vacuum divided by its phase velocity in the sample.

± gives the expanded uncertainty stated by the source.

This note sets out measurements from the NIST ThermoML archive (doi:10.1021/je900557u).

For data set [1] the following is noted: 298.15 K; 101.33 kPa; Liquid; Vibrating tube method.
Data set [2] is described as follows: refractive index (Na D-line) (dimensionless). The following applies: 298.15 K; 101.33 kPa; Liquid; refractometer.
Data set [3] can be described thus: xn = mol fraction of the nth substance listed. Conditions: 298.15 K, 101 kPa, Liquid, Vibrating tube method.

As for `CCOS(=O)(=O)[O-].CC[n+]1cccc(C)c1` [1-ethyl-3-methylpyridinium ethylsulfate], the mass density in data set [1] is on record as 1219.61 ± 0.42 kg/m3. Also, the refractive index in data set [2] stood at 1.50591 ± 0.00024.
For `CCc1ccccc1` [ethylbenzene] the same measures were 862.51 ± 0.11 kg/m3 and 1.49304 ± 0.00014.
For `CCc1ccccc1` [ethylbenzene] + CCCCCC, the mass density is listed as 862.51 ± 0.11 kg/m3 in data set [3] (x2 = 0); 843.13 ± 0.28 kg/m3 in data set [3] (x2 = 0.0903); 824.35 ± 0.29 kg/m3 in data set [3] (x2 = 0.1776); 805.21 ± 0.29 kg/m3 in data set [3] (x2 = 0.2675); 781.93 ± 0.29 kg/m3 in data set [3] (x2 = 0.3777); 757.81 ± 0.3 kg/m3 in data set [3] (x2 = 0.4931). Further, the mass density in data set [3] (x2 = 0.5929) was 737.22 ± 0.31 kg/m3; in data set [3] (x2 = 0.6947), 716.43 ± 0.32 kg/m3; in data set [3] (x2 = 0.7984), 695.45 ± 0.33 kg/m3; in data set [3] (x2 = 0.8942) it was 676.28 ± 0.34 kg/m3.
In the case of `CCCCCC` [hexane], in data set [1], the mass density was 655.19 ± 0.26 kg/m3. In data set [2], the refractive index came out at 1.37234 ± 0.00024.
For the molecule `CCCCCC` [hexane] + CCc1ccccc1, in data set [3] (x1 = 1), the mass density is reported as 655.19 ± 0.25 kg/m3.
Turning to `CCCCCC` [hexane] + Cc1ccccc1, the mass density stood at 841.73 ± 0.31 kg/m3 in data set [3] (x1 = 0.083); 820.75 ± 0.3 kg/m3 in data set [3] (x1 = 0.1713); 791.72 ± 0.3 kg/m3 in data set [3] (x1 = 0.298); 770.3 ± 0.3 kg/m3 in data set [3] (x1 = 0.396); 748.44 ± 0.3 kg/m3 in data set [3] (x1 = 0.5011); 729.53 ± 0.3 kg/m3 in data set [3] (x1 = 0.5949). The mass density in data set [3] (x1 = 0.6973) is given as 709.61 ± 0.3 kg/m3; in data set [3] (x1 = 0.7961), 691.1 ± 0.31 kg/m3; in data set [3] (x1 = 0.8946) it was 673.45 ± 0.32 kg/m3; in data set [3] (x1 = 1) it was 655.19 ± 0.25 kg/m3.
With `Cc1ccccc1` [toluene], the mass density in data set [1] is recorded as 862.17 ± 0.11 kg/m3. Also, the refractive index in data set [2] is recorded as 1.49399 ± 0.00014.
With `Cc1ccccc1` [toluene] + CCCCCC, the mass density in data set [3] (x2 = 0) stood at 862.17 ± 0.11 kg/m3.
